# Like-named read-outs stand apart in the source and are kept apart here. Where no end group is shown, it is not given here.
# Experiments:
# [1] = system: Escherichia coli (E. coli) ATCC 25922; type: cell-based; settings: MHB, 5 × 10^5 CFU/mL, 37°C, 18 h, triplicate
# Procedure: (§1) The antibacterial activity of the vCPPs was tested using a standard broth microdilution procedure ([Wikler et al., 2006]; [Wiegand et al., 2008]) to evaluate the bacterial growth inhibition and determine the minimal inhibitory concentration (MIC). The assay was performed using the following strains: Gram-positive Staphylococcus aureus (S. aureus) ATCC 25923 and methicillin-resistant Staphylococcus aureus (MRSA) ATCC 33591, and Gram-negative Escherichia coli (E. coli) ATCC 25922 and Pseudomonas aeruginosa (P. aeruginosa) ATCC 27853, obtained from American Type Culture Collection (ATCC) (Manassas, VA, USA). Bacterial suspensions were prepared by direct suspension of morphologically similar colonies on Mueller Hinton Broth (MHB) from BD (Franklin Lakes, NJ, USA) to a final concentration of 1 × 10^6 CFU/mL, and added to a sterile 96-well microtiter polypropylene plate from Corning (Corning, NY, USA) containing two-fold dilutions of each peptide. Final bacterial concentration was 5 × 10^5 CFU/mL whereas peptide concentrations ranged between 100 and 0.78 μM. The 96-well plate was incubated at 37°C for 18 h. The MIC was defined as the lowest peptide concentration required to inhibited visible bacterial growth. The assay was performed in triplicate.
# [2] = system: Pseudomonas aeruginosa (P. aeruginosa) ATCC 27853; type: cell-based; settings: MHB, 5 × 10^5 CFU/mL, 37°C, 18 h, triplicate
# Procedure: as §1
# [3] = system: methicillin-resistant Staphylococcus aureus (MRSA) ATCC 33591; type: cell-based; settings: MHB, 5 × 10^5 CFU/mL, 37°C, 18 h, triplicate
# Procedure: as §1
# [4] = system: S. aureus; type: cell-based, Staphylococcus aureus; settings: for bactericidal or bacteriostatic: bactericidal when MBC is equal or lower than four-fold MIC; for MBC: lowest concentration causing ≥99.9% cell death of the inoculum, TSA plates, 37°C, 24 h, triplicate
# Procedure: (§2) After the MIC assay, aliquots were removed from the wells with no visible bacterial growth, serially diluted in MHB, plated on nutrient-rich trypcase soy agar (TSA) plates from bioMérieux (Marcy l’Etoile, France), and incubated at 37°C for 24 h. […] The assay was performed in triplicate.
# [5] = system: P. aeruginosa; type: cell-based; settings: for bactericidal or bacteriostatic: bactericidal when MBC is equal or lower than four-fold MIC; for MBC: lowest concentration causing ≥99.9% cell death of the inoculum, TSA plates, 37°C, 24 h, triplicate
# Procedure: as §2
# [6] = system: S. aureus; assay: Time-kill assay; type: cell-based, Staphylococcus aureus; settings: peptide at its MBC, after 30 min, MHB, 37°C, relative to control without peptide, three independent experiments
# Procedure: (§3) For viral protein-derived peptides displaying bactericidal activity, bacterial killing kinetics was determined by a conventional method based on colony counts obtained after different times of exposure of the bacterial cells to the peptides ([Barry et al., 1999]). The assay was performed using S. aureus and P. aeruginosa as representative strains of Gram-positive and Gram-negative bacteria, respectively. Bacterial suspensions prepared in MHB at 5 × 10^5 CFU/mL were treated with each peptide at final concentrations corresponding to their MBC, and incubated at 37°C and 200 rpm. A control of bacterial suspensions without peptide was performed under the same conditions. Aliquots of untreated and peptide-treated bacterial suspensions were withdrawn at 0, 15, 30, 60, 120, and 180 min, serially diluted in MHB, and plated on TSA plates. Bacterial colonies were counted after 24 h of incubation at 37°C. Viable bacteria (in CFU/mL) are reported as percentage of the control. The assay was performed in triplicate.
# [7] = system: P. aeruginosa; assay: Time-kill assay; type: cell-based, Pseudomonas aeruginosa; settings: peptide at its MBC, after 180 min, MHB, 37°C, relative to control without peptide, three independent experiments
# Procedure: as §3
# [8] = system: P. aeruginosa; assay: SYTOX Green uptake assay (membrane permeabilization, flow cytometry); type: cell-based, Pseudomonas aeruginosa; settings: P. aeruginosa 5 × 10^5 CFU/mL in 10 mM HEPES pH 7.4, 150 mM NaCl, 1 h, 37°C, twofold dilutions starting at MBC
# Procedure: SYTOX® Green (Invitrogen, Carlsbad, CA, USA) is a high-affinity nucleic acid stain that only penetrates cells with compromised plasma membranes and emits fluorescence when bound to DNA ([Roth et al., 1997]). A SYTOX Green uptake assay ([Torcato et al., 2013]; [Sani et al., 2015]) was performed using P. aeruginosa to study the effect of viral protein-derived peptides on those bacterial membranes. Bacterial suspensions at 1 × 10^8 CFU/mL in MHB were centrifuged for 10 min at 4000 × g and the pellet resuspended in 10 mM HEPES buffer, pH 7.4, containing 150 mM NaCl, to a final concentration of 5 × 10^5 CFU/mL. The bacterial suspensions were incubated for 1 h at 37°C and 200 rpm, with twofold dilutions of each bactericidal viral protein-derived peptide in a range of concentrations starting at their corresponding MBC. Peptide-treated bacterial cells were incubated with 0.1 μM of SYTOX Green for 10 min, on ice and protected from light. The fluorescence emission intensity signal was measured by flow cytometry (excitation with 488 nm laser and detection at 530 nm with 30 nm bandpass) and a total of 50 000 events were recorded. […] The percentage of permeabilized cells was determined considering that untreated bacterial cells (negative control) are 0% permeabilized and bacterial cells treated with isopropyl alcohol (positive control) are 100% permeabilized. […]
# [9] = system: P. aeruginosa cells; assay: Atomic force microscopy (AFM) imaging; type: cell-based, Pseudomonas aeruginosa; settings: 1 h, 37°C
# Procedure: Atomic force microscopy (AFM) imaging was used to study the effect of the bactericidal viral protein-derived peptides on P. aeruginosa cells. Bacterial suspensions at 1 × 10^8 CFU/mL in MHB were centrifuged for 10 min at 4000 × g, and the pellet resuspended in HEPES buffer to a final concentration of 1 × 10^7 CFU/mL. The bacterial suspensions were treated with each peptide at concentrations corresponding to their MBC, as well as the concentrations above and below their MBC, and incubated for 1 h at 37°C and 200 rpm. As control, untreated bacterial suspension was also incubated using the same conditions. A 200 μL droplet of each test sample was applied on a poly-L-lysine-coated glass slide and allowed to deposit for 20 min at room temperature. Each sample was then rinsed 10 times with sterile Milli-Q water and allowed to dry for 30 min at room temperature. AFM images were acquired using a JPK NanoWizard II (Berlin, Germany) mounted on a Zeiss Axiovert 200 inverted microscope (Göttingen, Germany). Measurements were carried out in air and in intermittent contact mode using uncoated silicon ACL cantilevers from APPNano (Mountain View, CA, USA). ACL cantilevers had typical resonance frequencies of 190 kHz and a spring constant of 45 N/m. Bacteria were first visualized through the optical microscope before being selected for imaging. On average, 14 untreated bacteria and 10 individual bacterial cells were imaged for each peptide concentration, with a total area of 4 μm × 4 μm from three independent bacterial preparation slides. Height images were recorded and treated with JPK SPM data processing 5.1.8.
# [10] = system: Staphylococcus aureus (S. aureus) ATCC 25923; settings: previous screen, ref Freire et al., 2015a; cited from earlier work
# [11] = system: Pseudomonas aeruginosa (P. aeruginosa) ATCC 27853; settings: previous screen, ref Freire et al., 2015a; cited from earlier work
# [12] = system: Staphylococcus aureus (S. aureus) ATCC 25923; type: cell-based; settings: MHB, 5 × 10^5 CFU/mL, 37°C, 18 h, triplicate
# Procedure: as §1
# [13] = system: MRSA; type: cell-based, Staphylococcus aureus; settings: for bactericidal or bacteriostatic: bactericidal when MBC is equal or lower than four-fold MIC; for MBC: lowest concentration causing ≥99.9% cell death of the inoculum, TSA plates, 37°C, 24 h, triplicate
# Procedure: as §2
# [14] = system: E. coli; type: cell-based, Escherichia coli; settings: for bactericidal or bacteriostatic: bactericidal when MBC is equal or lower than four-fold MIC; for MBC: lowest concentration causing ≥99.9% cell death of the inoculum, TSA plates, 37°C, 24 h, triplicate
# Procedure: as §2
Substance,MIC [1] [µM],MIC [2] [µM],MIC [3] [µM],bactericidal or bacteriostatic [4],MBC [4] [µM],bactericidal or bacteriostatic [5],MBC [5] [µM],reduction in bacterial viability [6] [%],reduction of bacterial viability [7] [%],membrane permeabilization (SYTOX Green) [8],"morphological changes of cell envelope (AFM) ([9]; all concentrations tested (MBC, above and below))",MIC [10] [µM],MIC [11] [µM],MIC [12] [µM],bactericidal or bacteriostatic [13],MBC [13] [µM],bactericidal or bacteriostatic [14],MBC [14] [µM],"morphological changes of cell envelope (AFM) ([9]; 1.56 μM, a concentration below MBC)","morphological changes of cell envelope (AFM) ([9]; treatment with MBC, or higher)"
GRRGPRRANQNGTRRRRRRT-NH2 [vCPP 1779],25,25,>100,–,–,–,–,–,–,–,–,–,–,–,–,–,–,–,–,–
INWKKWWQVFYTVV-NH2 [vAMP 059],–,–,–,bactericidal,1.56,bactericidal,6.25,99.9,99.7,increase in membrane permeabilization with increasing peptide concentrations,pronounced collapse in P. aeruginosa cell envelope,0.78,6.25,–,–,–,–,–,–,–
KKRYKKKYKAYKPYKKKKKF-NH2 [vCPP 0275],12.5,100,50,–,–,–,–,–,–,–,–,–,–,25 to 50,–,–,–,–,–,–
RPRRRATTRRRITTGTRRRR-NH2 [vCPP 0667],12.5,25,100,–,–,–,–,–,–,–,–,–,–,50,–,–,–,–,–,–
RRLTLRQLLGLGSRRRRRSR-NH2 [vCPP 0769],25,3.13,3.13,only inhibited bacterial growth,>100,bactericidal,6.25,–,–,–,–,–,–,3.13,only inhibited bacterial growth,>100,bactericidal,50,–,–
SPRRRTPSPRRRRSQSPRRR-NH2 [vCPP 0417],25,100,>100,–,–,–,–,–,–,–,–,–,–,>100,–,–,–,–,–,–
WRRRYRRWRRRRRWRRRPRR-NH2 [vCPP 2319],3.13,3.13,1.56,bactericidal,3.13,bactericidal,3.13,90.9,97,increase in membrane permeabilization with increasing peptide concentrations,–,–,–,1.56,bactericidal,3.13,bactericidal,3.13,only minor alterations on bacterial topography,marked collapse of the membrane structure

# — article PMC5415599, “New Potent Membrane-Targeting Antibacterial Peptides from Viral Capsid Proteins” (Frontiers in Microbiology, 2017)
